Measured values published in ChEMBL document CHEMBL4190375, “Current Insights of BRAF Inhibitors in Cancer” (J Med Chem, 2018).

Assays:
[1] = target: T1, Serine/threonine-protein kinase B-raf (Homo sapiens, UniProt P15056, V600E); assay: Inhibition of BRAF V600E mutant in human A375 cells assessed as reduction in ERK phosphorylation; format: cell-based
[2] = target: T1, Serine/threonine-protein kinase B-raf; assay: Inhibition of BRAF V600E mutant (unknown origin)
WM 266-4 = assay: Cytotoxicity in human WM266.4 cells after 72 hrs by CellTiter-Glo assay; format: functional, cell-based; settings: WM 266-4, 72 h
[3] = Cytotoxicity against human HCC364 cells harboring p61 V600E mutant; format: functional, cell-based
[4] = target: T1, Serine/threonine-protein kinase B-raf
[5] = target: T1, Serine/threonine-protein kinase B-raf; assay: biochemical
SK-MEL19 = assay: Cytotoxicity against human SK-MEL-19 cells harboring BRAF mutant after 3 days; format: functional, cell-based; settings: SK-MEL19, 72 h
[6] = target: T2, Serine/threonine-protein kinase B-raf (Homo sapiens, UniProt P15056); assay: Inhibition of BRAF in human Jurkat T cells assessed as reduction in ERK phosphorylation; format: cell-based
A-375 [7] = assay: Cytotoxicity against human A375 cells harboring BRAF V600E mutant after 72 hrs by CellTiter-Glo assay; format: functional, cell-based; settings: A-375, 72 h
[8] = target: T1, Serine/threonine-protein kinase B-raf; assay: Inhibition of BRAF V600E mutant (unknown origin) by Z'-LYTE assay
A-375 [9] = assay: Cytotoxicity against human A375 cells harboring BRAF V600E mutant after 72 hrs by alamar blue assay; format: functional, cell-based; settings: A-375, 72 h
[10] = target: T1, Serine/threonine-protein kinase B-raf; assay: Inhibition of BRAF V600E mutant in human A375 cells assessed as reduction in ERK phosphorylation after 2 hrs by ELISA; format: cell-based
[11] = target: T2, Serine/threonine-protein kinase B-raf; assay: Inhibition of wild type BRAF (unknown origin) by Z'-LYTE assay
[12] = target: T3, RAF proto-oncogene serine/threonine-protein kinase (Homo sapiens, UniProt P04049); assay: Inhibition of CRAF (unknown origin) by Z'-LYTE assay
A-375 [13] = assay: Cytotoxicity against human A375 cells harboring BRAF V600E mutant after 96 hrs by CellTiter-Glo assay; format: functional, cell-based; settings: A-375, 96 h
SK-MEL-28 = assay: Cytotoxicity against human SK-MEL-28 cells after 72 hrs by CellTiter-Glo assay; format: functional, cell-based; settings: SK-MEL-28, 72 h
A-375 [14] = assay: Cytotoxicity against human A375 cells harboring BRAF V600E mutant after 48 hrs by CellTiter-Glo assay; format: functional, cell-based; settings: A-375, 48 h
[15] = target: T3, RAF proto-oncogene serine/threonine-protein kinase; assay: Inhibition of CRAF (unknown origin)
[16] = target: T4, Serine/threonine-protein kinase A-Raf (Homo sapiens, UniProt P10398); assay: Inhibition of ARAF (unknown origin)
T4 sequence (P10398 whole entry): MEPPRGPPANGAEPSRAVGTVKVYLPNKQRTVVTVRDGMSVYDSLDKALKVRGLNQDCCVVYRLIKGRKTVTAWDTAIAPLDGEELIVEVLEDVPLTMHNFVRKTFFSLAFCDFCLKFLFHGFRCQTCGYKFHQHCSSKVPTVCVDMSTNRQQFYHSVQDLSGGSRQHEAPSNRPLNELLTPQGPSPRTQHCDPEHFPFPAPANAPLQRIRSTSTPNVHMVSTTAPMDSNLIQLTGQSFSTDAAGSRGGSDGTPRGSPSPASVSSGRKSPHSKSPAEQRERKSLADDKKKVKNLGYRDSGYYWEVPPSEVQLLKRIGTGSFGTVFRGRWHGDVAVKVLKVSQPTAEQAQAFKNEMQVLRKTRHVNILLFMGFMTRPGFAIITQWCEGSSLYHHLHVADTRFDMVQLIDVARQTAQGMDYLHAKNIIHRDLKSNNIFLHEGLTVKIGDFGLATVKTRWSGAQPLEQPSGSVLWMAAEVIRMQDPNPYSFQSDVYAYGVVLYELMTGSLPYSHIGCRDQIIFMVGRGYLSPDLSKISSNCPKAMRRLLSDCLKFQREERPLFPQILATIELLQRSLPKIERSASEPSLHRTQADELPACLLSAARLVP

[17] = target: T1, Serine/threonine-protein kinase B-raf; remark: listed apart in the source
[18] = target: T1, Serine/threonine-protein kinase B-raf; remark: listed apart in the source
[19] = target: T2, Serine/threonine-protein kinase B-raf
SK-MEL-30 = assay: cells; settings: Homo sapiens, SK-MEL-30, 48 h
A-375 [20] = assay: Cytotoxicity against human A375 cells harboring BRAF V600E mutant; format: functional, cell-based
[21] = Half life in human; format: ADME, organism-based; settings: in vivo
[22] = Cytotoxicity against human PLGA cells harboring BRAF V600E mutant after 96 hrs by CellTiter-Glo assay; format: functional, cell-based
[23] = Tmax in human; format: ADME, organism-based; settings: in vivo

T1 sequence (P15056 2-766 V600E limits assumed): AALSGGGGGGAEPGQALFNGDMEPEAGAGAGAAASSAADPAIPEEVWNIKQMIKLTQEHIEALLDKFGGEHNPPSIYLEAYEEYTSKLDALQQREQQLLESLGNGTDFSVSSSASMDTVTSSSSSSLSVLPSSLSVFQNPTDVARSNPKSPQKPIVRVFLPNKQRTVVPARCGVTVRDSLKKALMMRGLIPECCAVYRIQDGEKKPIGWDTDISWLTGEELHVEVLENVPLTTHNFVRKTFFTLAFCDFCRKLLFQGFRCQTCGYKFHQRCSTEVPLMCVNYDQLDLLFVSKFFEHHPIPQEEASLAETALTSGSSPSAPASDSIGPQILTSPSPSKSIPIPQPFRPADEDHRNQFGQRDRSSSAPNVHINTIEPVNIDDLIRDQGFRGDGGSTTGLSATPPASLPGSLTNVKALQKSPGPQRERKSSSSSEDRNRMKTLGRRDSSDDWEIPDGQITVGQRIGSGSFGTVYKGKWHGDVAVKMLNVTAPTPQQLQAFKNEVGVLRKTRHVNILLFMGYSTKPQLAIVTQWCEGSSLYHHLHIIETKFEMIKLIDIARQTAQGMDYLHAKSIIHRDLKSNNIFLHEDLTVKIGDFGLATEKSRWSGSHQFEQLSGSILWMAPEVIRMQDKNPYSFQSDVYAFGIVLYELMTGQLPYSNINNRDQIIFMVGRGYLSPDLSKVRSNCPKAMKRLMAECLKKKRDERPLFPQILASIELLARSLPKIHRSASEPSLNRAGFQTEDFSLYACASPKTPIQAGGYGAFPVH
T2 sequence (P15056 whole entry): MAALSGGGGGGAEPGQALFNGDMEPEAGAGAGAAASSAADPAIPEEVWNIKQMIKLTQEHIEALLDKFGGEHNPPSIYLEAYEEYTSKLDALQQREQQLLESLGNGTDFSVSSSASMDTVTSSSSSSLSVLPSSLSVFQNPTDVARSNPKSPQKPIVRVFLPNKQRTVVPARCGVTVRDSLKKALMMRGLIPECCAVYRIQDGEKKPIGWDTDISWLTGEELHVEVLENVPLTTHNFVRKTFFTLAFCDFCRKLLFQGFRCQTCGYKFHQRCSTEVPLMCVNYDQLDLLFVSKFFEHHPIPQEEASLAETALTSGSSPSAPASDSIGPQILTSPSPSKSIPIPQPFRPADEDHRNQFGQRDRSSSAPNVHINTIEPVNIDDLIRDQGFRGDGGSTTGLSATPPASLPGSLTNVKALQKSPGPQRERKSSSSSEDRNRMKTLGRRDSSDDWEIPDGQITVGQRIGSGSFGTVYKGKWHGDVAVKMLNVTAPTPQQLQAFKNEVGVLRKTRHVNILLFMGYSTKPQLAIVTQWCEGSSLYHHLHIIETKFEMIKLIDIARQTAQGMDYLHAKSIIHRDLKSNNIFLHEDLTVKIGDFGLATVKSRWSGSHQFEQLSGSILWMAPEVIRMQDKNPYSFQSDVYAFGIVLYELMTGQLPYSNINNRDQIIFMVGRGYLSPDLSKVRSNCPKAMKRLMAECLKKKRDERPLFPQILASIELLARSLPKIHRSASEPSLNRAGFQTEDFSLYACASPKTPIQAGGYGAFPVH
T3 sequence (P04049 whole entry): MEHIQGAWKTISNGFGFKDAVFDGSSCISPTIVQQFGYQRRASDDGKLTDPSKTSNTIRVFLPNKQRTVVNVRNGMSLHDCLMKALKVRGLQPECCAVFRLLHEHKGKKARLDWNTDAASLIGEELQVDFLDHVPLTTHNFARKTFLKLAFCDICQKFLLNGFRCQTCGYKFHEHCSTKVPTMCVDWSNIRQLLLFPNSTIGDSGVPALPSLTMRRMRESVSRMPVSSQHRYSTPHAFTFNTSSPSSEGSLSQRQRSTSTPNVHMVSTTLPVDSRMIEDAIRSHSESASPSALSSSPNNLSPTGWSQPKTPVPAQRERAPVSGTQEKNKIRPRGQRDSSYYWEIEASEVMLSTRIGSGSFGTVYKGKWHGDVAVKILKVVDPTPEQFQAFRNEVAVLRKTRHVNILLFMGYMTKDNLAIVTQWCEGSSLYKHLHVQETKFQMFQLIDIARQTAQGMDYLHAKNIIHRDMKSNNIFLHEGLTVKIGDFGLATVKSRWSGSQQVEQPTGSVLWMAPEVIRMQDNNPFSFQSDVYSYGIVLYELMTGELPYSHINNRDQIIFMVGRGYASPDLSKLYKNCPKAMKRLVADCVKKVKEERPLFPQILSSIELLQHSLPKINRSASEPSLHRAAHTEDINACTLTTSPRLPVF

Compound: CC(C)(C)c1cc(NC(=O)Nc2ccc(Oc3ccnc4[nH]c(=O)cnc34)cc2F)n(-c2ccccc2)n1
- IC50 [1]: 5 nM
- IC50 [2]: 40 nM
- IC50 (WM 266-4): 15 nM

Compound: O=C(c1c(F)ccc(NS(=O)(=O)N2CC[C@H](F)C2)c1F)c1c[nH]c2ncc(-c3cnc(C4CC4)nc3)cc12
- IC50 [3]: 800 nM
- IC50 [4]: 3.5 nM
- IC50 [5]: 3.8 nM

Compound: COC(=O)Nc1nc2cc(C3(O)c4ccccc4C(=O)N3c3cc(Cl)ccc3C)ccc2[nH]1 (stereo not given) [XL-281]
- IC50 [2]: 6 nM
- IC50 (SK-MEL19): 200 nM
- IC50 [6]: 2000 nM

Compound: CSc1cc(Oc2ccnc3[nH]c(=O)cnc23)ccc1NC(=O)Nc1cc(C(C)(C)C)nn1-c1ccccc1
- IC50 [1]: 5 nM
- IC50 (A-375 [7]): 10 nM
- IC50 [2]: 15 nM

Compound: CC(C)(N)c1cc(C(=O)NC2CCc3ccc(Oc4ccnc5c4CCC(=O)N5)cc3C2)cc(C(F)(F)F)c1 (stereo not given)
- IC50 (A-375 [7]): 200 nM

Compound: CCCS(=O)(=O)Nc1ccc(F)c(-n2cc(-c3cncnc3)c3nc(N(C)C4CCN(CC)CC4)ccc32)c1F [XP-102]
- IC50 [8]: 0.4 nM
- IC50 (A-375 [9]): 0.9 nM
- IC50 [10]: 0.5 nM
- IC50 [11]: 0.8 nM
- IC50 [12]: 0.6 nM

Compound: OCCn1cc(-c2ccc3c(c2)CC/C3=N\O)c(-c2ccncc2)n1
- EC50 (A-375 [13]): > 500 nM

Compound: CC(C)(C)c1nc(-c2cccc(NS(=O)(=O)c3c(F)cccc3F)c2F)c(-c2ccnc(N)n2)s1 [DABRAFENIB]
- IC50 (SK-MEL-28): 43 nM

Compound: CN(C)CCOc1ccc(-c2nc(-c3ccncc3)c(-c3ccc4c(c3)CC/C4=N\O)[nH]2)cc1 [SB590885]
- IC50 (A-375 [14]): 370 nM

Compound: O=C1CCc2c(Oc3ccc4c(c3)[C@H]3[C@@H](O4)[C@@H]3c3nc4ccc(C(F)(F)F)cc4[nH]3)ccnc2N1
- IC50 (A-375 [7]): 200 nM
- IC50 [15]: 7 nM
- IC50 [16]: 5.6 nM
- IC50 [17]: 23 nM
- IC50 [18]: 64 nM
- IC50 [19]: 32 nM

Compound: CNC(=O)c1cc(Oc2ccc(NC(=O)Nc3ccc(Cl)c(C(F)(F)F)c3)cc2)ccn1 [SORAFENIB]
- IC50 (SK-MEL-30): 3900 nM

Compound: CCN(C)S(=O)(=O)Nc1ccc(F)c(C(=O)c2c[nH]c3ncc(-c4cnc(C5CC5)nc4)cc23)c1F
- IC50 (A-375 [20]): 170 nM
- IC50 [4]: 16 nM
- IC50 [5]: 4.2 nM

Compound: CNc1ncc2cc(-c3cc(NC(=O)NCCC(C)(C)C)c(F)cc3C)c(C)nc2n1 [LY-3009120]
- half-life [21]: 67 h

Compound: CCCS(=O)(=O)Nc1ccc(F)c(C(=O)c2c[nH]c3ncc(Cl)cc23)c1F [PLX-4720]
- IC50 (A-375 [7]): 500 nM

Compound: C[C@H](NC(=O)c1ncnc(N)c1Cl)c1ncc(C(=O)Nc2cc(C(F)(F)F)c(Cl)cn2)s1
- IC50 [22]: 248 nM
- Tmax [23]: 2 h
